14 compounds from patent publication US20260042762A1 (Kymera Therapeutics, Inc., priority 2018, published 2026) can be followed below.

The test deals with T1, MerTK (Homo sapiens, UniProt Q12866).
T1 construct: endogenous in cells; host or cells: Jurkat cells
T1 sequence (Q12866 21-999): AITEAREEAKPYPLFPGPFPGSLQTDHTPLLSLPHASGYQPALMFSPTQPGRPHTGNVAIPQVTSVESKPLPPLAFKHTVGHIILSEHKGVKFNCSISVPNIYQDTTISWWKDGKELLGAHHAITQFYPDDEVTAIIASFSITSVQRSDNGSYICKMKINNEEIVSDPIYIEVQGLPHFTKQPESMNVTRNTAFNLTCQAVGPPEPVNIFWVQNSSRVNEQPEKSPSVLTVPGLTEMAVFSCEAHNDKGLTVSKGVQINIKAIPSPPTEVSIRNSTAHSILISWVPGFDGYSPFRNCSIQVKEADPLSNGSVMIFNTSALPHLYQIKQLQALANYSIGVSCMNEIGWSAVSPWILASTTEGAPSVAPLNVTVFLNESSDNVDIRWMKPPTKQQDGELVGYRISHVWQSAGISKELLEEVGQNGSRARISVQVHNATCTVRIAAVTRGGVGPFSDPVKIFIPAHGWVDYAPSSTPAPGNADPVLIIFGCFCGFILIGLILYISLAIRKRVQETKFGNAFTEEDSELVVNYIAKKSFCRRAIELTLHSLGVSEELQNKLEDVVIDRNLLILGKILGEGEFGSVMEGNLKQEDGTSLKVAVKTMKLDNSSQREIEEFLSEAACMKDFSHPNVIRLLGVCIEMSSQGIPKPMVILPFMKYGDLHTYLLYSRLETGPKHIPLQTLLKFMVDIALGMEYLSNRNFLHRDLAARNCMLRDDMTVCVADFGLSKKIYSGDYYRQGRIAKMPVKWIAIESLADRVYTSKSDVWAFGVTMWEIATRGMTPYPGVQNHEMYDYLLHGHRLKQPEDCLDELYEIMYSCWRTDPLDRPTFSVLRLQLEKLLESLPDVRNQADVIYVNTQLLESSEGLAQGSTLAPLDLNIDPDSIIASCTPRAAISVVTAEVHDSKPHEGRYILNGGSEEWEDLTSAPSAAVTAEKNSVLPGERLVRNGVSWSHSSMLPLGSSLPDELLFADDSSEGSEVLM
Put plainly: MerTk degradation in Jurkat cells (Western blot). It is filed as cell-based. The following applies: Jurkat, 4 h, 0.001-1 μM, 4 hour-incubation at 37° C., read-out: Jurkat Max % MerTK Degradation. In short, it runs like this:
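Jurkat cells treated 4 h at 37 °C with compound at 0.001-1 μM final. RIPA lysates quantified by BCA, then MerTK probed by Western blot against actin loading control with IR-dye secondaries and Odyssey imaging.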
(In general: Immunoblotting shows a protein as a band on a membrane.)
In the case of `O=C1CC[C@H](n2c3ccc(CCCOCCOCCN4CCN(Cc5ccc(-c6cn([C@H]7CC[C@H](O)CC7)c7nc(NCCC(F)(F)F)ncc67)cc5)CC4)cc3c3cccnc32)C(=O)N1` [I-125, 3-(6-[3-[2-(2-[4-[(4-[7-[trans-4-hydroxycyclohexyl]-2-[(3,3,3-trifluoropropyl)amino]-7H-pyrrolo[2,3-d]pyrimidin-5-yl]phenyl)methyl]piperazin-1-yl]ethoxy)ethoxy]propyl]-9H-pyrido[2,3-b]indol-9-y1)piperidine-2,6-dione], the Dmax was above 50%.

For the compound `O=C1CC[C@H](n2c3ccccc3c3c(CCCOCCOCCN4CCN(Cc5ccc(-c6cn([C@H]7CC[C@H](O)CC7)c7nc(NCCC(F)(F)F)ncc67)cc5)CC4)ccnc32)C(=O)N1` [I-126, 3-(4-[3-[2-(2-[4-[(4-[7-[trans-4-hydroxycyclohexyl]-2-[(3,3,3-trifluoropropyl)amino]-7H-pyrrolo[2,3-d]pyrimidin-5-yl]phenyl)methyl]piperazin-1-yl]ethoxy)ethoxy]propyl]-9H-pyrido[2,3-b]indol-9-yl)piperidine-2,6-dione], the Dmax was above 50%. Take `O=C1CC[C@H](n2c3cc(CCCOCCOCCN4CCN(Cc5ccc(-c6cn([C@H]7CC[C@H](O)CC7)c7nc(NCCC(F)(F)F)ncc67)cc5)CC4)ccc3c3cccnc32)C(=O)N1` [I-127, 3-(7-[3-[2-(2-[4-[(4-[7-[trans-4-hydroxycyclohexy1]-2-[(3,3,3-trifluoropropyl)amino]-7H-pyrrolo[2,3-d]pyrimidin-5-yl]phenyl)methyl]piperazin-1-yl]ethoxy)ethoxy]propyl]-9H-pyrido[2,3-b]indol-9-yl)piperidine-2,6-dione]: the Dmax fell in the range of 20 to 50%. With `Cn1c(=O)n([C@H]2CCC(=O)NC2=O)c2ccc(CCN3CC(OCCN4CCN(Cc5ccc(-c6cn([C@H]7CC[C@H](O)CC7)c7nc(NCCC(F)(F)F)ncc67)cc5)CC4)C3)cc21` [I-128, 3-(3-methyl-2-oxo-5-[2-[3-(2-[4-[(4-[7-[trans-4-hydroxycyclohexyl]-2-[(3,3,3-trifluoropropyl)amino]pyrrolo[2,3-d]pyrimidin-5-yl]phenyl)methyl]piperazin-1-yl]ethoxy)azetidin-1-yl]ethyl]-1,3-benzodiazol-1-y1)piperidine-2,6-dione], the Dmax fell in the range of 20 to 50%. Regarding `Cn1c(=O)n([C@H]2CCC(=O)NC2=O)c2ccc(CCOCCN3CC(N4CCN(Cc5ccc(-c6cn([C@H]7CC[C@H](O)CC7)c7nc(NCCC(F)(F)F)ncc67)cc5)CC4)C3)cc21` [I-129, 3-(3-methyl-2-oxo-5-[2-[2-(3-[4-[(4-[7-[trans-4-hydroxycyclohexy1]-2-[(3,3,3-trifluoropropyl)amino]-7H-pyrrolo[2,3-d]pyrimidin-5-y1]phenyl)methyl]piperazin-1-yl]azetidin-1-yl)ethoxy]ethyl]-2,3-dihydro-1H-1,3-benzodiazol-1-y1)piperidine-2,6-dione; formic acid], the Dmax was above 50%.

`Cn1c(=O)n([C@H]2CCC(=O)NC2=O)c2ccc(CCOCCN3CCC(N4CCN(Cc5ccc(-c6cn([C@H]7CC[C@H](O)CC7)c7nc(NCCC(F)(F)F)ncc67)cc5)CC4)CC3)cc21` [I-130, 3-(3-methyl-2-oxo-5-[2-[2-(4-[4-[(4-[7-[trans-4-hydroxycyclohexyl]-2-[(3,3,3-trifluoropropyl)amino]-7H-pyrrolo[2,3-d]pyrimidin-5-yl]phenyl)methyl]piperazin-1-yl]piperidin-1-y1)ethoxy]ethyl]-2,3-dihydro-1H-1,3-benzodiazol-1-y1)piperidine-2,6-dione]: the Dmax was above 50%. As for `Cn1c(=O)n(C2CCC(=O)NC2=O)c2ccc(CCOCCN3CCCC(N4CCN(Cc5ccc(-c6cn([C@H]7CC[C@H](O)CC7)c7nc(NCCC(F)(F)F)ncc67)cc5)CC4)C3)cc21` (stereo partly drawn) [I-131, 3-(3-methyl-2-oxo-5-[2-[2-(3-[4-[(4-[7-[trans-4-hydroxycyclohexyl]-2-[(3,3,3-trifluoropropyl)amino]-7H-pyrrolo[2,3-d]pyrimidin-5-yl]phenyl)methyl]piperazin-1-y1]piperidin-1-yl)ethoxy]ethyl]-2,3-dihydro-1H-1,3-benzodiazol-1-y1)piperidine-2,6-dione; formic acid], the Dmax was above 50%.

On to `Cn1c(=O)n(C2CCC(=O)NC2=O)c2ccc(CCOCCN3CCC(N4CCN(Cc5ccc(-c6cn([C@H]7CC[C@H](O)CC7)c7nc(NCCC(F)(F)F)ncc67)cc5)CC4)C3)cc21` (stereo partly drawn) [I-132, 3-(3-methyl-2-oxo-5-[2-[2-(3-[4-[(4-[7-[trans-4-hydroxycyclohexyl]-2-[(3,3,3-trifluoropropyl)amino]-7H-pyrrolo[2,3-d]pyrimidin-5-yl]phenyl)methyl]piperazin-1-yl]pyrrolidin-1-yl)ethoxy]ethyl]-2,3-dihydro-1H-1,3-benzodiazol-1-yl)piperidine-2,6-dione], for which the Dmax was above 50%. Consider `O=C1CC[C@H](n2c3ccc(NCCOCCOCCN4CCN(Cc5ccc(-c6cn([C@H]7CC[C@H](O)CC7)c7nc(NCCC(F)(F)F)ncc67)cc5)CC4)cc3c3cccnc32)C(=O)N1` [I-133, 3-[6-([2-[2-(2-[4-[(4-[7-[trans-4-hydroxycyclohexyl]-2-[(3,3,3-trifluoropropyl)amino]pyrrolo[2,3-d]pyrimidin-5-yl]phenyl)methyl]piperazin-1-yl]ethoxy)ethoxy]ethyl]amino)pyrido[2,3-b]indol-9-yl]piperidine-2,6-dione; formic acid], for which the Dmax was above 50%. For the compound `O=C1CC[C@H](n2c3cccc(CCCOCCOCCN4CCN(Cc5ccc(-c6cn([C@H]7CC[C@H](O)CC7)c7nc(NCCC(F)(F)F)ncc67)cc5)CC4)c3c3cccnc32)C(=O)N1` [I-134, 3-(5-[3-[2-(2-[4-[(4-[7-[trans-4-hydroxycyclohexy1]-2-[(3,3,3-trifluoropropyl)amino]pyrrolo[2,3-d]pyrimidin-5-yl]phenyl)methyl]piperazin-1-yl]ethoxy)ethoxy]propyl]pyrido[2,3-b]indol-9-y1)piperidine-2,6-dione], the Dmax is above 50%. As for `Cn1c(=O)n([C@H]2CCC(=O)NC2=O)c2cccc(CCCOCCOCCN3CCN(Cc4ccc(-c5cn([C@H]6CC[C@H](O)CC6)c6nc(NCCC(F)(F)F)ncc56)cc4)CC3)c21` [I-135, 3-(3-methyl-2-oxo-4-[3-[2-(2-[4-[(4-[7-[trans-4-hydroxycyclohexyl]-2-[(3,3,3-trifluoropropyl)amino]pyrrolo[2,3-d]pyrimidin-5-yl]phenyl)methyl]piperazin-1-yl]ethoxy)ethoxy]propyl]-1,3-benzodiazol-1-y1)piperidine-2,6-dione], the Dmax was above 50%. With `Cn1c(=O)n([C@H]2CCC(=O)NC2=O)c2ccc(CCCN3CC(C4CCN(Cc5ccc(-c6cn([C@H]7CC[C@H](O)CC7)c7nc(NCCC(F)(F)F)ncc67)cc5)CC4)C3)cc21` [I-136, 3-[3-methyl-2-oxo-5-[3-(3-[1-[(4-[7-[trans-4-hydroxycyclohexyl]-2-[(3,3,3-trifluoropropyl)amino]pyrrolo[2,3-d]pyrimidin-5-yl]phenyl)methyl]piperidin-4-yl]azetidin-1-yl)propyl]-1,3-benzodiazol-1-y1]piperidine-2,6-dione; tris(formic acid)], the Dmax was above 50%. In the case of `Cn1c(=O)n([C@H]2CCC(=O)NC2=O)c2ccc(CCCN3CCC(C4CCN(Cc5ccc(-c6cn([C@H]7CC[C@H](O)CC7)c7nc(NCCC(F)(F)F)ncc67)cc5)CC4)CC3)cc21` [I-137, 3-[3-methyl-2-oxo-5-(3-[1-[(4-[7-[trans-4-hydroxycyclohexyl]-2-[(3,3,3-trifluoropropyl)amino]pyrrolo[2,3-d]pyrimidin-5-yl]phenyl)methyl]-[4,4-bipiperidin]-1-y1]propyl)-1,3-benzodiazol-1-yl]piperidine-2,6-dione], the Dmax is above 50%.

`Cn1c(=O)n([C@H]2CCC(=O)NC2=O)c2cccc(CCCOCCCN3CCN(Cc4ccc(-c5cn([C@H]6CC[C@H](O)CC6)c6nc(NCCC(F)(F)F)ncc56)cc4)CC3)c21` [I-138, 3-[3-methyl-2-oxo-4-[3-(3-[4-[(4-[7-[trans-4-hydroxycyclohexy1]-2-[(3,3,3-trifluoropropyl)amino]pyrrolo[2,3-d]pyrimidin-5-yl]phenyl)methyl]piperazin-1-yl]propoxy)propyl]-1,3-benzodiazol-1-yl]piperidine-2,6-dione]: the Dmax is above 50%.
